Earlier results, collected in patent publication US8293779B2, “Mazindol combination in the treatment of attention deficit/hyperactivity” (Assistance Publique-Hopitaux de Paris, priority 2006, dated 2012).
Where two headings read alike, the source gives them in different places.

Legend:
[1] = unlike amphetamine molecules
[2] = animal toxicology studies
[3] = after single or repeated oral administration

## OC1(c2ccc(Cl)cc2)c2ccccc2C2=NCCN21 (centres unmarked) [mazindol, 5-(4-chlorophenyl)-2,5-dihydro-3H-imadazo[2,1-a]isoindol-5-ol]
[1]
  cardiovascular modifications or stereotypes: does not cause cardiovascular modifications or stereotypes
[2]
  carcinogenic effect: no carcinogenic effect
  mutagenic effect: no mutagenic effect
  toxic potential: very low
  toxicology effect in reproduction: no toxicology effect in reproduction
24 hours after taking
  part of the dose still plasmatically effective: 75%
[3]
  plasmatic half-life time: 33 to 55 h
  tmax: 2 to 4 h
Doses of between 1 mg/day and 4 mg/day
  pharmacokinetics dose dependence: linear (independent of the dose)
General statement
  plasmatic half-life time: greater than one day
In vivo
  excretion in faeces (fraction): ¼
oral, with food
  delay of absorption by taking food concomitantly: approximately 1 hour
  effect of food on total quantity absorbed: does not modify the total quantity absorbed
Principal metabolism urinary
  excretion in urine (fraction): ¾
